Reference: patent US7858578B2, “Methods of inducing neuronal growth by a Fucose-α(1-2) galactose (fuc-α(1-2) gal) moiety and a lectin” (California Institute of Technology, priority 2004, dated 2010)
Blank lines part the entries; values can stand above or below the compound they belong to. Where a SMILES comes first, the peptide text is derived from it. The star is where a group is joined. Cbz = O=C(OCc1ccccc1)*

Key:
hippocampal slices = conditions: cited from earlier work
hippocampal neurons [1] = assay: Effects of deoxy-galactose sugars on neuronal morphology (anti-tau immunostaining); type: cell-based, rat; conditions: for rescue of 2-dGal effects: 75 mM Gal for 2 days after 15 mM 2-dGal for 2 days
Experimental: Hippocampal neurons were plated on poly-DL-ornithine-coated glass coverslips as described above. After one day in culture, the medium was replaced with fresh medium, and the small molecules (2-dGal, 3-Deoxy-D-Galactose (3-dGal), or D-Galactose (Gal)) were added. A dose-response experiment was initially performed to determine the minimum concentration of 2-dGal needed to elicit an effect. Neurons were treated with varying concentrations of 2-dGal (1, 5, 10, 15, or 30 mM in 25 μL PBS with 475 μL of supplemented Neurobasal medium) for 2 days before immunostaining with anti-tau antibodies as described above.
Cells were treated as above under 4 different conditions: (1) no treatment for 2 days, (2) incubation with 15 mM 2-dGal for 2 days, (3) incubation with 15 mM 2-dGal for 2 days followed by incubation with 75 mM Gal for 2 days, or (4) incubation with 15 mM 3-dGal for 2 days. After adding the small molecules, cultures were incubated at 37° C., 5% CO2, then washed once with PBS, and immunostained with anti-tau antibody as described above.

E18 cortical neurons = assay: Expression of synaptic proteins in cultured neurons (Western blotting); type: cell-based; conditions: 15 mM for 3 days, neurons 7 DIV
Experimental: FIG. 20. […] (A) E18 cortical neurons cultured for 7 DIV were treated with 15 mM of 2-dGal or 6-dGal for 3 days. Protein lysates were analyzed by Western blotting using antibodies selective for the indicated proteins. A significant reduction in the expression of synapsin Ib was observed, while other synapse-associated proteins were unaffected by the 2-dGal treatment. (B) Neurite retraction caused by 2-dGal is reduced in synapsin-deficient mice. Neurons from synapsin I-deficient or wild-type mice were cultured for 2 days, treated with 2-dGal for 3 days, and analyzed for mean neurite length.
To examine the effects of 2-dGal on synapsin fucosylation in neurons, neurons were cultured for 7 DIV to allow for adequate expression of synapsin and subsequently treated with 2-dGal or 6-dGal for comparison. Cells were lysed and immunoblotted as described above. […] The expression of other synaptic proteins, including NSF, the synaptic vesicle protein synaptotagmin, the presynaptic plasma membrane protein syntaxin, and the postsynaptic proteins PSD-95, the AMPA receptor GluR1 subunit and spinophilin, was unchanged by the 2-dGal treatment.

[2] = test system: synapsin I expressed in HeLa cells; assay: Synapsin fucosylation and expression in synapsin I-transfected HeLa cells (immunoblotting); type: cell-based; conditions: deoxy sugar for 24 h
Experimental: (§1) FIG. 19. Inhibition of synapsin fucosylation using 2-dGal decreases the expression and half-life of synapsin I. (A) Effects of 2-dGal and 6-dGal on synapsin fucosylation (left panel) and synapsin expression (right panel) levels. Synapsin I-transfected HeLa cells were treated with the indicated amounts of the deoxy sugar for 24 h. Fucosylation and synapsin expression levels were measured by immunoblotting with antibody A46-B/B10 and an anti-synapsin antibody, respectively. […] Synapsin I-transfected HeLa cells were treated with 2-dGal or a vehicle control (PBS), pulse labeled with ^35S-L-cysteine and ^35S-L-methionine as described in Materials and Methods, and chased for the indicated times. ^35S-labeled synapsin levels were measured by autoradiography. (C) Inhibition of the calcium-activated protease calpain using a calpain inhibitor peptide or calpeptin protects synapsin from degradation. […] Synapsin I-transfected HeLa cells were treated with the indicated inhibitors or vehicle control (DMSO, PBS or MeOH) in the presence or absence of 2-dGal for 15 h. Following lysis, the cell extracts were analyzed for synapsin expression levels by immunoblotting.
The effects of 2-dGal on synapsin I expressed in HeLa cells were next investigated. Cell lysates containing equivalent amounts of transfected protein were resolved by SDS-PAGE, and the fucosylation and protein levels of synapsin were measured by immunoblotting, using methods described above.

[3] = test system: binding of antibody A46-B/B10 to bovine synapsin I; assay: Competition ELISA; conditions: competitors 0.078-5 mM
Experimental: To gain insight into the structural determinants recognized by antibody A46-B/B10, competition enzyme-linked immunosorbent assay (ELISA) experiments were performed using a series of fucose analogs (FIG. 12 A, B). Purified bovine synapsin Ia/Ib (Ueda, T., et al., J. Biol. Chem., 252:5155-5163 (1977)) was a supplied by Drs. P. Greengard and A. Nairn (The Rockefeller University, New York, N.Y.). The protein was immobilized on a microtiter plate by incubation in 50 mM NaHCO3, pH 9.0 at 4° C. overnight. Antibody A46-B/B10 (0.02 mg/mL) and the competitors (0.078-5 mM) were incubated in TBST (50 mM Tris-HCl pH 7.4, 150 mM NaCl, 0.1% Tween-20) at 4° C. overnight and then transferred to the microtiter plate. The wells were washed with TBST and incubated with a goat anti-mouse secondary antibody conjugated to alkaline phosphatase (1:500) at rt for 1 h. The wells were washed with TBST and developed with p-nitrophenyl phosphate. Inhibition curves were generated using PRISM (GraphPAD Software, Inc.).
Synapsin Ia and Ib from bovine brain were immobilized on a microtiter plate, and binding of antibody A46-B/B10 to synapsin was assessed in the presence of varying concentrations of the competitors (see FIG. 12A for structures of the competitor molecules). […] (Haselhorst, T., et al., J. Am. Chem. Soc., 123:10705-10714 (2001))

[4] = test system: synapsin I-transfected HeLa cells; assay: Synapsin degradation with inhibitors of protein degradation with or without 2-dGal; type: cell-based; conditions: with 2-dGal, 15 h
Experimental: as §1
To investigate the molecular mechanisms responsible for synapsin degradation, cells expressing synapsin were treated with various inhibitors of protein degradation in the presence or absence of 2-dGal. Specifically, the lysosomal inhibitors bafilomycin A1 and ammonium chloride, the proteasome inhibitor MG132, and two inhibitors of the calcium-dependent protease calpain, were used.

hippocampal neurons [5] = assay: Binding of biotinylated probe to cultured hippocampal neurons (streptavidin-AlexaFluor 488 imaging); type: cell-based, rat; conditions: 3 mM, 10 μM PAO
Experimental: Hippocampal neurons were cultured using a procedure modified from Goslin and Banker, in Culturing Nerve Cells, Banker, G., Goslin, K., Eds., pp. 251-281, MIT Press: Cambridge, Mass. 1991. Briefly, the hippocampi of embryonic day 18 (E18) rats were dissected and transferred to 4.5 mL of ice-cold Calcium and Magnesium Free-Hank's Balanced Salt Solution (CMF-HBSS). Trypsin (2.5%, no EDTA) was added to 5 mL, and the tissue was incubated for 15 min at 37° C. The trypsin solution was removed and the tissue sample washed three times with 5 mL of CMF-HBSS. Cells were then dissociated from the tissue in 1 mL of CMF-HBSS by passing through a P1000 pipet tip twenty times. The cells were counted, diluted into Minimal Eagle's Medium (MEM) plus 10% fetal bovine serum, and seeded on poly-DL-ornithine-coated glass coverslips (Carolina Biological) at a density of 75 cells/mm2 (100 μL/coverslip) for 30 min. After this time, 500 μL of supplemented Neurobasal medium (47.5 mL Neurobasal medium without Lglutamine; 0.5 mL L-glutamine (200 mM); 0.5 mL penicillin/streptomycin (10,000 U/mL); 0.5 mL antibiotic-antimycotic (100× stock), 1.0 mL B-27 serum-free supplement (50× stock); 50 μL of 0.5 M kynurenic acid in 1 N NaOH) was added to each coverslip. The use of kynurenic acid to block glutamate receptor ion channels and enhance neuronal health and survival is standard protocol for neuronal cultures. Id. The cultures were maintained in 5% CO2 at 37° C. in supplemental Neurobasal medium.
After 23 days in culture, the medium was replaced, and neurons were treated with the endocytosis inhibitor phenylarsine oxide (PAO; 4 μL in DMSO, final concentration 10 μM) (Nouel, D., et al., J. Neurosci. 17:1795-1803 (1997)) and either compound III (24 μL in PBS, final concentration 3 mM), or biotin (24 μL in PBS, final concentration 3 mM), in supplemented Neurobasal medium (400 μL final volume) for 1 h at 37° C., 5% CO2. After 1 h, neurons were rinsed 2 times with PBS, fixed in 4% paraformaldehyde for 20 min at rt, washed 2 times with PBS, permeabilized in 0.3% Triton X-100 for 5 min at rt, and washed 2 times with PBS. Non-specific binding was blocked with 3% BSA for 1 h at rt and then rinsed one time with PBS. Compound III was detected with streptavidin conjugated to AlexaFluor 488 (1:200, Molecular Probes). Dye-conjugated streptavidin was added in 3% BSA for 1 h at 37° C. and the excess reagent washed off 5 times with PBS. Coverslips were then mounted onto slides with Vectashield, sealed, and imaged using confocal laser microscopy. Results can be seen in FIG. 2.
De-lipidation was performed on some samples following the protocol of Yavin, E. et al., J. Neurosci. Res. 9:229-237 (1983). Briefly, after 23 days in culture, cells were rinsed once with PBS then exposed to MeOH/CHCl3 (½ by vol.) for 15 min at −80° C. This procedure fixes the cells to the coverslip and extracts cellular lipids. After removing the MeOH/CHCl3 mixture, coverslips were dried at rt then incubated with 3% BSA for 1 hr at rt. After one rinse with PBS, neurons were treated with PAO and the procedure described above was followed.

Compound: 2′fucosyllactose
effect on LTP (hippocampal slices): enhance LTP

Compound: O=C[C@H](O)C[C@@H](O)[C@H](O)CO [Compound 3-dGal, 3-Deoxy-D-Galactose]
effect on neurite outgrowth (hippocampal neurons [1]; 15 mM for 2 days): no impact on neurite outgrowth

Compound: C[C@@H](O)[C@H](O)[C@H](O)[C@@H](O)C=O [Compound 6-dGal, 6-deoxy-D-galactose]
expression of synapsin I (E18 cortical neurons): no effect
fucosylation level of synapsin [2]: no effect
level of synapsin protein [2]: no effect

inhibition of antibody binding to synapsin Ia and Ib [3]: did not compete
Compound: O=C[C@H](O)[C@@H](O)[C@H](O)[C@H](O)CO [D-glucose]

Compound: CCO[C@@H]1O[C@H](CO)[C@H](O)[C@H](O)[C@H]1O[C@@H]1O[C@@H](C)[C@@H](O)[C@@H](O)[C@@H]1O [Fucα(1-2)Gal-β-OEt, Ethyl O-(α-L-fucopyranosyl)-(1-2)-β-D-galactopyranoside]
inhibition of antibody binding to synapsin Ia and Ib [3]: selectively inhibited

inhibition of antibody binding to synapsin Ia and Ib [3]: did not compete
Compound: O=C[C@H](O)[C@@H](O)[C@@H](O)[C@H](O)CO [Gal, D-Galactose]
rescue of 2-dGal effects (hippocampal neurons [1]): rescued
rescue of 2-dGal effects (hippocampal neurons [1]; listed as D-galactose): regeneration of the neuronal processes

inhibition of antibody binding to synapsin Ia and Ib [3]: effective at inhibiting antibody binding
Compound: CCOC1OC(C)C(O)C(O)C1O [L-Fuc-α-OEt, ethyl α/β-L-fucopyranoside]
IC50 (compared in words) [3]: comparable to that of the disaccharide Fucα(1-2)Gal-β-OEt

inhibition of antibody binding to synapsin Ia and Ib [3]: effective at inhibiting antibody binding
Compound: C[C@H](O)[C@@H](O)[C@@H](O)[C@H](O)C=O [L-fucose]
effect on LTP (hippocampal slices): enhance LTP
IC50 (compared in words) [3]: comparable to that of the disaccharide Fucα(1-2)Gal-β-OEt

Compound: CC(C)C[C@@H](C=O)NC(=O)[C@H](CC(C)C)NC(=O)[C@H](CC(C)C)NC(=O)OCc1ccccc1 [MG132] (Cbz-Leu-Leu-Leu-aldehyde)
rescue of synapsin from 2-dGal-induced degradation [4]: no effect on synapsin degradation

inhibition of antibody binding to synapsin Ia and Ib [3]: did not compete
Compound: CC(=O)N[C@H]1C(O)O[C@H](CO)[C@@H](O)[C@@H]1O (stereo partly drawn) [N-acetyl-D-glucosamine]

Compound: Cl.N [ammonium chloride]
rescue of synapsin from 2-dGal-induced degradation [4]: no effect on synapsin degradation

Compound: CO/C1=C\C(C)=C\[C@@H](C)[C@@H](O)[C@@H](C)C/C(C)=C/C=C/[C@H](OC)[C@@H]([C@@H](C)[C@@H](O)[C@H](C)[C@@]2(O)C[C@@H](O)[C@H](C)[C@@H](C(C)C)O2)OC1=O [bafilomycin A1]
rescue of synapsin from 2-dGal-induced degradation [4]: no effect on synapsin degradation

Compound: O=C(O)CCCC[C@@H]1SC[C@@H]2NC(=O)N[C@@H]21 [biotin]
labeling of neurons after de-lipidation (hippocampal neurons [5]; neurons de-lipidated with MeOH/CHCl3): minor binding of the biotin alone to the cell body but not the neurites
binding to hippocampal neurons (hippocampal neurons [5]; 1 h, E18 neurons 23 days in vitro): this binding is not between the biotin moieties and the neuron

Compound: CCCC[C@@H](C=O)NC(=O)[C@H](CC(C)C)NC(=O)OCc1ccccc1 [calpeptin]
rescue of synapsin from 2-dGal-induced degradation [4]: rescued the effects of 2-dGal
